Patent US11235020B2, “Methods and compositions for inhibiting glyoxalase 1 (GLO1)” (priority 2013, dated 2022)
“And” between values parts separate entries of the source, which are not always exact repeats. Identical values can stand only once.

What was measured:
[1] = tested on: anxiety-like behavior in C57BL6/J mice; test: OFT after bilateral microinjection into the basolateral amygdala (BLA); conditions: MG 12 uM or 24 uM, 0.5 ul bilateral into BLA, over 30 m
[2] = tested on: anxiety-like behavior and locomotion in mice; test: Open field (OF) test; type: in vivo, mouse
Procedure: OF test: Mice were placed into the center of the OF, and activity was monitored for five to ten minutes. The apparatus was illuminated to approximately 40 lux. Data were collected and processed using the manufacturer's software (AccuScan Instruments).
OF test: Ten minutes post-injection, mice were placed into the center of the OF. The apparatus was illuminated to approximately 40 lux. Behavior was measured as described above.
OF test replication studies: Ten to twenty minutes post-injection, mice were tested in the OF for five to ten minutes. In some experiments, behavior was scored as described above. In other experiments, mice were tested in the OF, and behavior was automatically scored by the Noldus Ethovision System. For mice tested in the Noldus system, the apparatus was illuminated to approximately 1,000 lux.
Chronic MG administration: For five days, mice were injected twice daily with vehicle or MG (4 mg/kg). Twelve hours after the final injection, mice were tested in the OF as described above.
Pure MG: Pure MG was obtained from Dr. John Termini at the City of Hope, Duarte, Calif. It was administered at the indicated doses by i.p. injection. Mice were tested as described above.
OF test: Two hours post-injection, mice were tested in the OF test as described above. The center size was 10×10 cm. The apparatus was illuminated to approximately 40 lux.

[3] = MG 50 mg/kg i.p., male WT B6 mice, 10 min post-injection

Compound: CC(=O)C=O [MG, methylglyoxal]
- center duration in the OFT [1]: increased center duration in the OFT
- anxiety-like behavior in the OF after chronic treatment ([2]; MG 4 mg/kg i.p. twice daily for five days, tested on the sixth day): significant reduction in anxiety-like behavior
- center time in the OF ([2]; MG 50 mg/kg i.p., CD-1 mice): increased center time in the OF
- distance traveled in the OF ([2]; MG 50 mg/kg i.p., CD-1 mice): without affecting distance traveled
- anxiety-like behavior in the OF in mice with the Glo1 duplication ([2]; MG 50 mg/kg i.p., CD-1 mice with Glo1 duplication): reduced anxiety-like behavior in mice with the Glo1 duplication
- distance traveled in the OF [2, 3]: without affecting distance traveled
- increase in center time in the OF [2, 3]: approximately 30%
- persistence of anxiolytic effect after injection ([2]; MG 50 mg/kg i.p., separate cohorts tested at different intervals): ≤ 20 min
- Cohen's d, meta-analysis of anxiolytic effect in the OF test ([2]; MG 50 mg/kg i.p., seven experiments, total n = 181, fixed-effect model): 0.78 and 0.7798
- locomotion in the OF ([2]; MG 100 mg/kg, WT B6 mice): decreased locomotion in the OF
